Results: ChEMBL document CHEMBL3885881, “DrugMatrix”

Organism: Rattus norvegicus
Experiment: DrugMatrix - Regimen: Daily Repeat
Type: toxicity, organism-based, Sprague-Dawley
Design: regimen Daily Repeat, gender Male, age 6-8 weeks
Details: in vivo, po, route oral GAVAGE, […]; for ABSOLUTE BASOPHIL / ABSOLUTE EOSINOPHIL / ABSOLUTE LYMPHOCYTE / ABSOLUTE MONOCYTE / ABSOLUTE SEGMENTED NEUTROPHIL / BASOPHIL / EOSINOPHIL / ERYTHROCYTE COUNT / HEMATOCRIT / HEMOGLOBIN / LEUKOCYTE COUNT / LYMPHOCYTE / MEAN CORPUSCULAR HEMOGLOBIN / MEAN CORPUSCULAR HEMOGLOBIN CONCENTRATION / MEAN CORPUSCULAR VOLUME / MONOCYTE / NEUTROPHIL / NUCLEATED RED BLOOD CELLS / PLATELET COUNT: tissue Blood; for ALANINE AMINOTRANSFERASE / ALBUMIN / ALKALINE PHOSPHATASE / ASPARTATE AMINOTRANSFERASE / BLOOD UREA NITROGEN / CARBON DIOXIDE / CHLORIDE / CHOLESTEROL / CREATINE PHOSPHOKINASE / CREATININE / GLUCOSE / LACTATE DEHYDROGENASE / LIPASE / PHOSPHORUS / POTASSIUM / SODIUM / TOTAL BILIRUBIN / TOTAL PROTEIN / URIC ACID: tissue Plasma
[1] = 0 mg/kg, 72 h, dose level Control, time 3 day
[2] = 0 mg/kg, 120 h, dose level Control, time 5 day
[3] = 20 mg/kg, 72 h, dose level Low, time 3 day
[4] = 20 mg/kg, 120 h, dose level Low, time 5 day

O=c1c(-c2ccc(O)cc2)coc2cc(O)cc(O)c12 [GENISTEIN]
ABSOLUTE BASOPHIL [1]: 0 CELLS/uL | ABSOLUTE EOSINOPHIL [1]: 14 CELLS/uL | ABSOLUTE LYMPHOCYTE [1]: 11144.67 CELLS/uL | ABSOLUTE MONOCYTE [1]: 22.5 CELLS/uL | ABSOLUTE SEGMENTED NEUTROPHIL [1]: 535.5 CELLS/uL | BASOPHIL [1]: 0% | EOSINOPHIL [1]: 0.17% | ERYTHROCYTE COUNT [1]: 5.08 x10E6/uL | HEMATOCRIT [1]: 32.32% | HEMOGLOBIN [1]: 12.87 G/DL | LEUKOCYTE COUNT [1]: 11.72 x10E3/uL | LYMPHOCYTE [1]: 94.67% | MEAN CORPUSCULAR HEMOGLOBIN [1]: 25.37 pg | MEAN CORPUSCULAR HEMOGLOBIN CONCENTRATION [1]: 39.85 G/DL | MEAN CORPUSCULAR VOLUME [1]: 63.58 fL | MONOCYTE [1]: 0.17% | NEUTROPHIL [1]: 5% | NUCLEATED RED BLOOD CELLS [1]: 0 /100WBC | PLATELET COUNT [1]: 1084 x10E3/uL | ALANINE AMINOTRANSFERASE [1]: 67.5 u/L | ALBUMIN [1]: 4.02 G/DL | ALKALINE PHOSPHATASE [1]: 374.17 u/L | ASPARTATE AMINOTRANSFERASE [1]: 83.5 u/L | BLOOD UREA NITROGEN [1]: 14.5 mg/dL | CARBON DIOXIDE [1]: 30 mmol/L | CHLORIDE [1]: 100.5 MEQ/L | CHOLESTEROL [1]: 71.33 mg/dL | CREATINE PHOSPHOKINASE [1]: 268.33 u/L | CREATININE [1]: 0.16 mg/dL | GLUCOSE [1]: 170.5 mg/dL | LACTATE DEHYDROGENASE [1]: 81.17 u/L | LIPASE [1]: 16.67 u/L | PHOSPHORUS [1]: 10.07 mg/dL | POTASSIUM [1]: 5.03 MEQ/L | SODIUM [1]: 142.92 MEQ/L | TOTAL BILIRUBIN [1]: 0.17 mg/dL | TOTAL PROTEIN [1]: 5.63 G/DL | URIC ACID [1]: 0.5 mg/dL | ABSOLUTE BASOPHIL [2]: 0 CELLS/uL | ABSOLUTE EOSINOPHIL [2]: 37.5 CELLS/uL | ABSOLUTE LYMPHOCYTE [2]: 8049.5 CELLS/uL | ABSOLUTE MONOCYTE [2]: 82.83 CELLS/uL | ABSOLUTE SEGMENTED NEUTROPHIL [2]: 646.83 CELLS/uL | BASOPHIL [2]: 0% | EOSINOPHIL [2]: 0.5% | ERYTHROCYTE COUNT [2]: 5.36 x10E6/uL | HEMATOCRIT [2]: 33.9% | HEMOGLOBIN [2]: 13.02 G/DL | LEUKOCYTE COUNT [2]: 8.82 x10E3/uL | LYMPHOCYTE [2]: 90.17% | MEAN CORPUSCULAR HEMOGLOBIN [2]: 24.32 pg | MEAN CORPUSCULAR HEMOGLOBIN CONCENTRATION [2]: 38.42 G/DL | MEAN CORPUSCULAR VOLUME [2]: 63.32 fL | MONOCYTE [2]: 1.17% | NEUTROPHIL [2]: 8.17% | NUCLEATED RED BLOOD CELLS [2]: 0.17 /100WBC | PLATELET COUNT [2]: 1231.5 x10E3/uL | ALANINE AMINOTRANSFERASE [2]: 62 u/L | ALBUMIN [2]: 3.97 G/DL | ALKALINE PHOSPHATASE [2]: 303.67 u/L | ASPARTATE AMINOTRANSFERASE [2]: 84.5 u/L | BLOOD UREA NITROGEN [2]: 14.83 mg/dL | CARBON DIOXIDE [2]: 31.83 mmol/L | CHLORIDE [2]: 97 MEQ/L | CHOLESTEROL [2]: 68.83 mg/dL | CREATINE PHOSPHOKINASE [2]: 411.33 u/L | CREATININE [2]: 0.16 mg/dL | GLUCOSE [2]: 170.17 mg/dL | LACTATE DEHYDROGENASE [2]: 88.5 u/L | LIPASE [2]: 9.5 u/L | PHOSPHORUS [2]: 9.98 mg/dL | POTASSIUM [2]: 5.72 MEQ/L | SODIUM [2]: 141.62 MEQ/L | TOTAL BILIRUBIN [2]: 0.1 mg/dL | TOTAL PROTEIN [2]: 5.67 G/DL | URIC ACID [2]: 0.52 mg/dL | ABSOLUTE BASOPHIL [3]: 0 CELLS/uL | ABSOLUTE EOSINOPHIL [3]: 0 CELLS/uL | ABSOLUTE LYMPHOCYTE [3]: 8352.33 CELLS/uL | ABSOLUTE MONOCYTE [3]: 117.33 CELLS/uL | ABSOLUTE SEGMENTED NEUTROPHIL [3]: 697 CELLS/uL | BASOPHIL [3]: 0% | EOSINOPHIL [3]: 0% | ERYTHROCYTE COUNT [3]: 4.71 x10E6/uL | HEMATOCRIT [3]: 30.2% | HEMOGLOBIN [3]: 12.1 G/DL | LEUKOCYTE COUNT [3]: 9.17 x10E3/uL | LYMPHOCYTE [3]: 91% | MEAN CORPUSCULAR HEMOGLOBIN [3]: 25.73 pg | MEAN CORPUSCULAR HEMOGLOBIN CONCENTRATION [3]: 40.07 G/DL | MEAN CORPUSCULAR VOLUME [3]: 64.27 fL | MONOCYTE [3]: 1.33% | NEUTROPHIL [3]: 7.67% | NUCLEATED RED BLOOD CELLS [3]: 0 /100WBC | PLATELET COUNT [3]: 970.67 x10E3/uL | ALANINE AMINOTRANSFERASE [3]: 69.33 u/L | ALBUMIN [3]: 3.73 G/DL | ALKALINE PHOSPHATASE [3]: 415.33 u/L | ASPARTATE AMINOTRANSFERASE [3]: 87 u/L | BLOOD UREA NITROGEN [3]: 14 mg/dL | CARBON DIOXIDE [3]: 31.33 mmol/L | CHLORIDE [3]: 101.33 MEQ/L | CHOLESTEROL [3]: 55.33 mg/dL | CREATINE PHOSPHOKINASE [3]: 256 u/L | CREATININE [3]: 0.16 mg/dL | GLUCOSE [3]: 157.33 mg/dL | LACTATE DEHYDROGENASE [3]: 72 u/L | LIPASE [3]: 10.33 u/L | PHOSPHORUS [3]: 9.33 mg/dL | POTASSIUM [3]: 5.54 MEQ/L | SODIUM [3]: 144.67 MEQ/L | TOTAL BILIRUBIN [3]: 0.2 mg/dL | TOTAL PROTEIN [3]: 5.43 G/DL | URIC ACID [3]: 0.37 mg/dL | ABSOLUTE BASOPHIL [4]: 0 CELLS/uL | ABSOLUTE EOSINOPHIL [4]: 0 CELLS/uL | ABSOLUTE LYMPHOCYTE [4]: 8287 CELLS/uL | ABSOLUTE MONOCYTE [4]: 65 CELLS/uL | ABSOLUTE SEGMENTED NEUTROPHIL [4]: 1548 CELLS/uL | BASOPHIL [4]: 0% | EOSINOPHIL [4]: 0% | ERYTHROCYTE COUNT [4]: 4.93 x10E6/uL | HEMATOCRIT [4]: 31.57% | HEMOGLOBIN [4]: 12.13 G/DL | LEUKOCYTE COUNT [4]: 9.9 x10E3/uL | LYMPHOCYTE [4]: 84% | MEAN CORPUSCULAR HEMOGLOBIN [4]: 24.67 pg | MEAN CORPUSCULAR HEMOGLOBIN CONCENTRATION [4]: 38.43 G/DL | MEAN CORPUSCULAR VOLUME [4]: 64.13 fL | MONOCYTE [4]: 1% | NEUTROPHIL [4]: 15% | NUCLEATED RED BLOOD CELLS [4]: 0.33 /100WBC | PLATELET COUNT [4]: 1213.67 x10E3/uL | ALANINE AMINOTRANSFERASE [4]: 61.33 u/L | ALBUMIN [4]: 3.83 G/DL | ALKALINE PHOSPHATASE [4]: 296.67 u/L | ASPARTATE AMINOTRANSFERASE [4]: 87.33 u/L | BLOOD UREA NITROGEN [4]: 17 mg/dL | CARBON DIOXIDE [4]: 33 mmol/L | CHLORIDE [4]: 98.5 MEQ/L | CHOLESTEROL [4]: 69.67 mg/dL | CREATINE PHOSPHOKINASE [4]: 277.33 u/L | CREATININE [4]: 0.12 mg/dL | GLUCOSE [4]: 143.33 mg/dL | LACTATE DEHYDROGENASE [4]: 87.67 u/L | LIPASE [4]: 11.67 u/L | PHOSPHORUS [4]: 10.4 mg/dL | POTASSIUM [4]: 5.69 MEQ/L | SODIUM [4]: 143.35 MEQ/L | TOTAL BILIRUBIN [4]: 0.0667 mg/dL | TOTAL PROTEIN [4]: 5.57 G/DL | URIC ACID [4]: 0.43 mg/dL
